According to paper PMC9767854, “Discovery and mechanism studies of a novel ATG4B inhibitor Ebselen by drug repurposing and its anti-colorectal cancer effects in mice” (Cell & Bioscience, 2022):

Columns and labels:
CASP3 = tested on: CASP3; parameters: method as in PMID 23632366, PMID 25468037; details: cited from earlier work
WT and ATG4B KO HCT116 = test: Apoptosis detection by cleaved PARP western blot; type: cell-based; details: low or high concentrations of Ebselen; STS 2 μM; 6 h
HeLa cell line = test: Autophagy flux by LC3B-II western blot in HeLa; type: cell-based; details: Torin 1 2 μM, CQ 40 μM
Description: Since ATG4B is a key protein in autophagy, the experiment on the effect of Ebselen on autophagy flux was worth proposing. First of all, we determined the most classic index LC3B for autophagy flux detection in HeLa cell line. […] A, B HeLa cells were treated with Torin 1 (2 μM) or CQ (40 μM) and detected by western blot. C, D SW620 cells were transduced with sgCon and sgATG4B lentiviruses, respectively. Then cells were treated with CQ (40 μM) and detected by western blot. E, F HCT116 were treated with Ebselen (5 and 10 μM) or CQ (40 μM) and subjected to western blot. G, H SW620 were treated with Ebselen (10 μM) or CQ (40 μM) and western blotting was carried out to detect the protein levels. I, J Immunofluorescence analysis of endogenous LC3B in HCT116 treated with Ebselen (10 μM) or CQ (40 μM). Dots numbers for LC3B were derived from counting at least 20 cells and 5 fields from three independent replicated experiments. Bar = 10 μm. K HCT116 cells were treated with 2 μM Torin 1 in the presence or absence of 10 μM Ebselen for 12 h, then the level ratio of long-lived proteins was measured by flow cytometry

O=c1c2ccccc2sn1-c1ccccc1 [Ebsulfur]
inhibition on CASP3 (CASP3): clear inhibition

CN[C@@H]1C[C@H]2O[C@@](C)([C@@H]1OC)n1c3ccccc3c3c4c(c5c6ccccc6n2c5c31)C(=O)NC4 [Staurosporine (STS), Staurosporine]
apoptosis (cleaved PARP) (WT and ATG4B KO HCT116): generation of apoptosis

CCC(=O)N1CCN(c2ccc(-n3c(=O)ccc4cnc5ccc(-c6cnc7ccccc7c6)cc5c43)cc2C(F)(F)F)CC1 [Torin 1]
effect on autophagy (LC3B-II accumulation with CQ) (HeLa cell line): autophagy inducer
